Results taken from patent publication US8207198B2, “Substituted triazole derivatives as oxytocin antagonists” (Pfizer Inc., priority 2005, dated 2012).

Target: T1, oxytocin receptor (CHO-OTR/NFAT-β-Lactamase cells) (Homo sapiens, UniProt P30559)
T1 construct: expressed in transfected cells; host or cells: CHO-OTR cell line, further transfected with the NFAT-β-lactamase reporter construct
T1 sequence (P30559 1-389): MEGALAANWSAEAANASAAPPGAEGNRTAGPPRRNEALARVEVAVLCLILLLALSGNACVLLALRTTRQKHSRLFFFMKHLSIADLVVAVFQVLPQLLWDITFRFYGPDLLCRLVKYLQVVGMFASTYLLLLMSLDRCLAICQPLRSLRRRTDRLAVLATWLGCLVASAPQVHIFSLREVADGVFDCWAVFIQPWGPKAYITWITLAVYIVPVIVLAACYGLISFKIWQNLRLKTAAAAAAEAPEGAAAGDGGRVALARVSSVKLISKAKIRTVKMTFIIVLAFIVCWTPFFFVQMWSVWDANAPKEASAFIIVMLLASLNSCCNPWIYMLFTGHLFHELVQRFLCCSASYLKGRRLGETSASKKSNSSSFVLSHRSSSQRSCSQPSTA
Test: Oxytocin Receptor Beta-Lactamase Assay
Type: cell-based
Settings: oxytocin stimulation, read-out: oxytocin antagonist activity, expressed as a Ki value
Procedure: A suitable assay for determining the oxytocin antagonist activity of a compound is detailed herein below.
Oxytocin Receptor Beta-Lactamase Assay
Cell Culture Cells used are CHO-OTR/NFAT-β-Lactamase. The NFAT-β-lactamase expression construct was transfected into the CHO-OTR cell line and clonal populations were isolated via fluorescence activated cell sorting (FACS). An appropriate clone was selected to develop the assay. Growth Medium 90% F12 Nutrient Mix, 15 mM HEPES 10% FBS 400 μg/ml Geneticin 200 μg/ml Zeocin 2 mM L-Glutamine Assay Media 99.5% F12 Nutrient Mix, 15 mM HEPES 0.5% FBS
Recovery of cells—A vial of frozen cells is thawed rapidly in 37° C. water bath and the cell suspension transferred into a T225 flask with 50 ml of fresh growth medium and then incubated at 37° C., 5% CO2 in an incubator until the cells adhered to the flask Replace media with 50 ml of fresh growth media the following day.
Culturing cells—CHO-OTR-NFAT-βLactamase cells were grown in growth medium. Cells were harvested when they reached 80-90% confluence removing the medium and washing with pre-warmed PBS. PBS was then removed and Trypsin/EDTA added (3 mls for T225 cm^2 flask) before incubating for 5 min in 37° C./5% CO2 incubator. When cells were detached, pre-warmed growth media was added (7 mls for T225 cm^2 flask) and the cells re-suspended and mixed gently by pipetting to achieve single cell suspension. The cells were split into T225 flask at 1:10 (for 3 days growth) and 1:30 (for 5 days growth) ratio in 35 ml growth medium.
Cells grown at 80-90% confluence were harvested and counted. Suspensions of cells at 2×10^5 cells/ml in growth medium were prepared and 30 μl of cells suspension added in 384-well, black clear-bottom plates. A blank plate containing diluents from each reagent was used for background subtraction.
Plates were incubated at 37° C., 5% CO2 overnight. […]
Preparation of 1 ml of 6× Loading Buffer with Enhanced Loading Protocol (this requires scale-up according to number of plates to be screened). • 12 μl of solution A (1 mM CCF4-AM in Dry DMSO) was added to […] of solution B (100 mg/ml Pluronic-F127 in DMSO+0.1% Acetic Acid) and vortexed. • The resulting solution was added to 925 μl of solution C (24% w/w PEG400, 18% TR40 v/v in water). • 75 μl of solution D was added (200 mM probenecid in 200 mM NaOH). • 10 μl of 6× Loading Buffer was added to all wells and incubated for 1.5 hrs-2 hrs at room temperature in the dark. • The plates were read using an LJL Analyst, Excitation 405 nm, Emission 450 nm and 530 nm, gain optimal, lagtime 0.40 μs integration, 4 flashes, bottom reading.

| Ki [nM] | Compound |
| --- | --- |
| 9 | COCc1nnc(N2CC(Oc3ccc(F)cc3Cl)C2)n1-c1ccc(OC)nc1 [Example 25] |
| 13.8 | COCc1nnc(N2CC(Oc3cccc(C)c3C)C2)n1-c1ccc(OC)nc1 [Example 28] |
| 4.2 | COc1ccc(-n2c(C)nnc2N2CCC(Oc3ccc(F)cc3C)CC2)cn1 [Example 43] |
| 1.8 | COCc1nnc(N2CCC(Oc3cccc(F)c3C)CC2)n1-c1ccc(OC)nc1 [Example 48] |
